Experimental data taken from patent US5726203A, “Qinghaosu derivatives against AIDS” (priority 1993, dated 1998).
Structures can show the parent of a compound that is named as a salt. Where two headings read alike, the source gives them in different places.

Legend:
[1] = system: HIV-1 (MT4); test: Anti-HIV effect on MT4 cells, virus antigen expression (immunoenzymatic method); assay type: cell-based
Excerpt: The virus used was HIV-1 which had been obtained from Professor Montagnier of the Pastear Institute, France. The virus titer used in the experiment was 1×10^4 TCID50 /ml. The cell culture used was CEM cell line which was cultivated in the HIV laboratory of Institute of Virology, Chinese Academy of Preventive Medicine, for cultivation storage of HIV-1.
The compounds used in the experiment were qinghaosu, dihydroqinghaosu, Artesunate, Artemether, dihydroqinghaosu-methylcarbamate, dihydroqinghaosu-benzenecarbamate, qinghaosu-morpholinyl propylether maleate, dihydroqinghaosu-diethyl amino ethyl ether maleate, deoxyqinghaosu-morpholinyl ethyl ether maleate, qinghaosu-morpholinyl propanol ether maleate, qinghaosu-3,5-dimonpholinyl methyl-4-hydroxy benzyl ether maleate, dihydroqinghaosu-m-chlorobenzoate, qinghaosu-3-pyrrolidinylmethyl-4-hydroxybenzoate oxalate, and qinghaosu-3-morpholinylmethyl-4-hydroxybenzoate oxalate. […] The concentration of the original solution of these compounds were all 1 mg/ml.
(§1) a. Freshly cultured MT4 cells (5×10^5 /ml) were co-cultivated with the virus fluid (10^3 TCID50 /ml) in a CO2 incubator at 37° C. for 1-1.5 hours. RPMI 1640 complete medium (containing 10% Bovine serum and antibiotics, such as penicillin) was used to wash the unbound virus.
(§2) Complete medium was added to correct the concentration for use.
(§3) The experiment was carried out on the plates with 96 wells. 0.1 ml of the above-mentioned infected MT4 cell suspension was added into each well, and then 0.1 ml of various concentrations of the drugs were added. […] Each concentration of the drugs was added into two wells. Both the experiment group and the control group were incubated in a CO2 incubator at 37° C. The drug solution were changed 3 days later, and the following observations were carried out 6 days afterwards.
b. Observation on the growth situation of cells. Trypan blue dye was used to observe the quantity of live cells in each group.
(§4) c. Determination of the virus antigen expression. The immunoenzymatic method was used to examine the virus antigen expression. Cells from each group were separately smeared in two wells. They were fixed with cold acetone, HIV-positive serum was dropped into the wells. After incubated in a CO2 incubator at 37° C. for 30 minutes, they were washed with PBS for 3 times. Enzyme-labelled SPA was dropped into the wells. They were incubated in the same condition for 30 minutes, washed with PBS for 3 times, and then put in substrate solution to stain for 2-3 minutes, washed with distilled water, and observed under microscope. Normal cells were colorless, whereas virus-carrying cells appeared browrish red.
The mark used were as follows:
The experiment was repeated two to three times.
The concentration of the original fluid of these compounds were all 1 mg/ml. 0.1 ml was taken and added into 0.1 ml of virus-carrying cell suspension, thus the reaction concentrations were as follows: in the original fluid group, 0.1 mg/0.2 ml, i.e., 0.5 mg/ml; in 1×10^-1group, 0.05 mg/ml; in 1×10^-2 group, 0.005 mg/ml; in 1×10^-3 group, 0.0005 mg/ml, i.e., 0.5 μg/ml; and on the analogy of this.

[2] = Acute toxicity in mice; assay type: in vivo; details: mouse, in vivo
Protocol: Animals: Hybrid swiss strain mice (provided by Animal House of Institute of Chinese Mateia Media, China Academy of Traditional Chinese Medicine), 20-22 grams, less than 6 weeks age of both sexes fed in laboretory for 3-5 days observation and a random taking food and drinking.
Drugs: Dihydroqinghaosu-methylcarbamate and dihydroqinghaosu-benzenecarbamate.
Above two drugs in powder form were dissolved into peanut oil. The biggest dose were 2000 mg/kg and 2161 mg/kg respectively. The distances between two dose groups were 0.7 and 0.68 respectively, with 5 dose groups each drugs.
Method: The mice were given single dose of above compound respectively intragastrically, the acute intoxication manifestrations were observed the LD value (LD5, LD50 and LD95) and B value were determined by three days mortality.

[3] = system: U937 HIV-1; test: Inhibition effect on HIV-1 infected U937 cells (macrophage cell line), HIV antigen test (IE); assay type: cell-based; details: U937 HIV-1; 50 μg/ml
Protocol: as §1, §2, §3, §4
(§5) Furthermore, a part of the compounds according to the present invention were used to test their inhibition effect on U937 cell line (macrophage cell line)according to the methods in Experiment 1.

[4] = system: U937 HIV-1; test: Inhibition effect on HIV-1 infected U937 cells, activity of reverse transcriptase; assay type: cell-based; details: 50 μg/ml, control 24502
Excerpt: as §5

[5] = cited from earlier work
[6] = system: Plasmodium Berghei; test: Peters' four day inhibition test in mice, erythrocytic stage of Plasmodium Berghei; assay type: in vivo; details: once a day D0-D3, Hybrid Kunming strain mice, read-out: SD50 (the source's name)
Excerpt: Effect on Erythrocytic Stage of Plasmodium Berghei 1. "Four day inhibition test" in mice To determinate the SD50 with Peters' "four day inhibition test". Hybrid Kunming strain mice, body weight 18-22 g, were inculated with 1×10^7 parasites infected RBC intraperitoneally on D0. Dihydroqinghaosu-methylcarbamate, dihydroqinghaosu-butylcarbamate, dihydroqinghaosu-benzenecarbamate and dihydroqinghaosu-4-nitrobenzenecarbamate with different concentration were given once a day from D0 -D3. Blood smears from mouse's tail were made on D4, stained with Gimsa reagent and examined under microscope to count the infected and uninfected erthrocyte to get infected rate. Inhibitory rates of different dosages were calculated by following formula. The SD50 was calculated by the simplified probit analysis: [formula]

CO[C@H]1O[C@@H]2O[C@@]3(C)CC[C@H]4[C@H](C)CC[C@@H]([C@H]1C)[C@@]24OO3 [Artemether, reference compound]
effect on HIV-1 (MT4), virus antigen expression ([1]; 1 × 10^-1 (50 μg/ml)): - (positive cells were not seen in the whole well) | effect on HIV-1 (MT4), virus antigen expression ([1]; 1 × 10^-2 (5 μg/ml)): - (positive cells were not seen in the whole well) | effect on HIV-1 (MT4), virus antigen expression ([1]; 1 × 10^-3 (0.5 μg/ml)): ± (there were only 1-2 doubtful positive cells in whole well) | effect on HIV-1 (MT4), virus antigen expression ([1]; 1 × 10^-4 (0.05 μg/ml)): + (there were 2-3 or more positive cells in the whole well) | LD50 ([2]; im, I.M. (Intramuscular injection)): 263 mg/kg

C[C@H]1[C@H](OC(=O)CCC(=O)O)O[C@@H]2O[C@@]3(C)CC[C@H]4[C@H](C)CC[C@@H]1[C@@]24OO3 [Artesunate, reference compound]
Antigen test (IE) [3]: - (positive cells were not seen in the whole well) | effect on HIV-1 (MT4), virus antigen expression ([1]; 1 × 10^-1 (50 μg/ml)): - (positive cells were not seen in the whole well) | effect on HIV-1 (MT4), virus antigen expression ([1]; 1 × 10^-2 (5 μg/ml)): - (positive cells were not seen in the whole well) | effect on HIV-1 (MT4), virus antigen expression ([1]; 1 × 10^-3 (0.5 μg/ml)): - (positive cells were not seen in the whole well) | effect on HIV-1 (MT4), virus antigen expression ([1]; 1 × 10^-4 (0.05 μg/ml)): + (there were 2-3 or more positive cells in the whole well) | LD50 ([2]; I.V. (Intravenous injection)): 769 mg/kg | Activity of reverse transcription (CPM) [4]: 4846 CPM

Nc1ccn([C@H]2CC[C@@H](CO)O2)c(=O)n1 [DDC, di-deoxycytidine]
toxicity to peripheral nerves ([5]; appears 6 weeks after drug administration): toxicity to peripharal nerves

O=c1[nH]cnc2c1ncn2[C@H]1CC[C@@H](CO)O1 [DDI, di-deoxytrophicardyl]
toxicity to peripheral nerves ([5]; in vivo): toxicity to peripharal nerves

C[C@H]1[C@@H](O)O[C@@H]2O[C@@]3(C)CC[C@H]4[C@H](C)CC[C@@H]1[C@@]24OO3 [Dihydroqinghaosu, dihydroqinghaosu, reference compound]
effect on HIV-1 (MT4), virus antigen expression ([1]; 1 × 10^-1 (50 μg/ml)): - (positive cells were not seen in the whole well) | effect on HIV-1 (MT4), virus antigen expression ([1]; 1 × 10^-2 (5 μg/ml)): - (positive cells were not seen in the whole well) | effect on HIV-1 (MT4), virus antigen expression ([1]; 1 × 10^-3 (0.5 μg/ml)): ± (there were only 1-2 doubtful positive cells in whole well) | effect on HIV-1 (MT4), virus antigen expression ([1]; 1 × 10^-4 (0.05 μg/ml)): + (there were 2-3 or more positive cells in the whole well) | LD50 ([2]; po, P.O. (per os)): 765 mg/kg

CC1CCC2C(C)C(OC(=O)Nc3ccc([N+](=O)[O-])cc3)OC3OC4(C)CCC1C32OO4 (stereo not shown) [Dihydroqinghaosu-4-nitrobenzenecarbamate, Dihydroqinghaosu-P-Nitrobenzenecarbamate]
ED50 [6]: 0.3 mg/kg

CCCCNC(=O)OC1OC2OC3(C)CCC4C(C)CCC(C1C)C24OO3 (stereo not shown) [Dihydroqinghaosu-butylcarbamate, dihydroqinghaosu-butylcarbamate]
ED50 [6]: 0.25 mg/kg

CC1CCC2C(C)C(OC(=O)c3cccc(Cl)c3)OC3OC4(C)CCC1C32OO4 (stereo not shown) [Dihydroqinghaosu-m-chlorobenzoate, dihydroqinghaosu-m-chlorobenzoate]
effect on HIV-1 (MT4), virus antigen expression ([1]; 1 × 10^-1 (50 μg/ml)): - (positive cells were not seen in the whole well) | effect on HIV-1 (MT4), virus antigen expression ([1]; 1 × 10^-2 (5 μg/ml)): - (positive cells were not seen in the whole well) | effect on HIV-1 (MT4), virus antigen expression ([1]; 1 × 10^-3 (0.5 μg/ml)): + (there were 2-3 or more positive cells in the whole well)

C[C@@H]1CC[C@H]2[C@@H](C)C(=O)O[C@@H]3O[C@@]4(C)CC[C@@H]1[C@]32OO4 [Qinghaosu, Qinghaosu (Artemisinin)]
effect on HIV-1 (MT4), virus antigen expression ([1]; 1 × 10^-1 (50 μg/ml)): - (positive cells were not seen in the whole well) | effect on HIV-1 (MT4), virus antigen expression ([1]; 1 × 10^-2 (5 μg/ml)): - (positive cells were not seen in the whole well) | effect on HIV-1 (MT4), virus antigen expression ([1]; 1 × 10^-3 (0.5 μg/ml)): + (there were 2-3 or more positive cells in the whole well) | effect on HIV-1 (MT4), virus antigen expression ([1]; 1 × 10^-4 (0.05 μg/ml)): + (there were 2-3 or more positive cells in the whole well)

CCN(CC)CCOC1OC2OC3(C)CCC4C(C)CCC(C1C)C24OO3 (stereo not shown) [dihydroqinghaosu-diethyl amino ethyl ether maleate]
effect on HIV-1 (MT4), virus antigen expression ([1]; 1 × 10^-1 (50 μg/ml)): ± (there were only 1-2 doubtful positive cells in whole well) | effect on HIV-1 (MT4), virus antigen expression ([1]; 1 × 10^-2 (5 μg/ml)): + (there were 2-3 or more positive cells in the whole well) | effect on HIV-1 (MT4), virus antigen expression ([1]; 1 × 10^-3 (0.5 μg/ml)): + (there were 2-3 or more positive cells in the whole well)

CC1CCC2C(C)C(OCc3cc(CN4CCOCC4)c(O)c(CN4CCOCC4)c3)OC3OC4(C)CCC1C32OO4.O=C(O)/C=C\C(=O)O (stereo not shown) [qinghaosu-3,5-dimonpholinyl methyl-4-hydroxy benzyl ether maleate]
effect on HIV-1 (MT4), virus antigen expression ([1]; 1 × 10^-1 (50 μg/ml)): + (there were 2-3 or more positive cells in the whole well) | effect on HIV-1 (MT4), virus antigen expression ([1]; 1 × 10^-2 (5 μg/ml)): + (there were 2-3 or more positive cells in the whole well) | effect on HIV-1 (MT4), virus antigen expression ([1]; 1 × 10^-3 (0.5 μg/ml)): + (there were 2-3 or more positive cells in the whole well)

Deoxyquinghaosu-morpholinyl propanol ether maleate
effect on HIV-1 (MT4), virus antigen expression ([1]; 1 × 10^-1 (50 μg/ml)): - (positive cells were not seen in the whole well) | effect on HIV-1 (MT4), virus antigen expression ([1]; 1 × 10^-2 (5 μg/ml)): + (there were 2-3 or more positive cells in the whole well) | effect on HIV-1 (MT4), virus antigen expression ([1]; 1 × 10^-3 (0.5 μg/ml)): - (positive cells were not seen in the whole well)

qinghaosu-3-morpholinylmethyl-4-hydroxybenzoate oxalate
effect on HIV-1 (MT4), virus antigen expression ([1]; 1 × 10^-1 (50 μg/ml)): ± (there were only 1-2 doubtful positive cells in whole well) | effect on HIV-1 (MT4), virus antigen expression ([1]; 1 × 10^-2 (5 μg/ml)): + (there were 2-3 or more positive cells in the whole well) | effect on HIV-1 (MT4), virus antigen expression ([1]; 1 × 10^-3 (0.5 μg/ml)): + (there were 2-3 or more positive cells in the whole well)

qinghaosu-3-pyrrolidinylmethyl-4-hydroxybenzoate oxalate
effect on HIV-1 (MT4), virus antigen expression ([1]; 1 × 10^-1 (50 μg/ml)): - (positive cells were not seen in the whole well) | effect on HIV-1 (MT4), virus antigen expression ([1]; 1 × 10^-2 (5 μg/ml)): + (there were 2-3 or more positive cells in the whole well) | effect on HIV-1 (MT4), virus antigen expression ([1]; 1 × 10^-3 (0.5 μg/ml)): - (positive cells were not seen in the whole well)

qinghaosu-morpholinyl propanol ether maleate
effect on HIV-1 (MT4), virus antigen expression ([1]; 1 × 10^-1 (50 μg/ml)): + (there were 2-3 or more positive cells in the whole well) | effect on HIV-1 (MT4), virus antigen expression ([1]; 1 × 10^-2 (5 μg/ml)): + (there were 2-3 or more positive cells in the whole well) | effect on HIV-1 (MT4), virus antigen expression ([1]; 1 × 10^-3 (0.5 μg/ml)): + (there were 2-3 or more positive cells in the whole well)

qinghaosu-morpholinyl propylether maleate
effect on HIV-1 (MT4), virus antigen expression ([1]; 1 × 10^-1 (50 μg/ml)): - (positive cells were not seen in the whole well) | effect on HIV-1 (MT4), virus antigen expression ([1]; 1 × 10^-2 (5 μg/ml)): + (there were 2-3 or more positive cells in the whole well) | effect on HIV-1 (MT4), virus antigen expression ([1]; 1 × 10^-3 (0.5 μg/ml)): + (there were 2-3 or more positive cells in the whole well)
